# Legend:
# [1] = test system: Hep3B cells; assay: ATP dependent luminescence cell viability assay, Hep3B; type: cell-based
# Description: The non-small cell lung cancer (NSCLC) cell line NCI-H1299, the breast cancer cell lines MCF7 and MDA MB 231 and the Hep3B, Hep2G and SK-Hep1 cells were obtained from the American Type Culture Collection (ATCC) (Manassas, Va., USA) and maintained as a monolayer culture in Eagle's minimum essential medium (MEM, Invitrogen, Gaithersburg, Md., USA) supplemented with 10% fetal bovine serum at 37 C and 5% CO2. All treatments were done in triplicate samples on 96-well plates. VX2 cells were maintained as described in Geschwind et al., Cancer Res., 62:3909-3913 (2002).
# Cytotoxicity of 3-BrPA was evaluated by the IC50 values, representing the drug concentration which depletes ATP by 50% compared to non-treated control. On day 1, cells were seeded into 96-well plates in a volume of 100 μl per well. On day 2, the medium of all wells was removed and an aliquot of 100 μl of media having serial dilutions of 3-BrPA in PBS, NaHCO3, NaOH, KOH and KHCO3 was added to the appropriate well. […] Briefly, 100 μl assay reagent was added to each well and mixed at room temperature for 2 min to develop luminescent signal. The luminescence intensity (cps) from each sample was determined with a spectrometer (Model Victor III, Perkin Elmer, Mass.). […]
# The effects on cell viability and cellular metabolism of 3-BrPA on Hep3B and VX2 cells were examined using luminescence ATP assays, as described above. […]
# [2] = test system: Hep3B, HepG2, SK-Hep1 and VX2 cells; assay: Active caspase-3 western blot; type: cell-based; settings: all four cell lines; 100, 150, 200 μM
# Procedure: The apoptosis of 3-BrPA treated cells was evaluated using Annexin V staining and the formation of active caspase-3. Cells treated with 3-BrPA were stained with anti-Annexin V and analyzed by flow cytometry as well as fluorescent microscopy. Flow cytometry was performed using a Becton-Dickinson FACSCalibur. The gating was done based on unstained control cells, Annexin V—PE stained and 7-AAD stained control cells. For fluorescent microscopy, Annexin V staining was performed using Annexin V staining Microscopy kit (BD Biosciences, USA) according to the protocol recommended by the manufacturer. In brief, cells grown in chambered slides were treated with either 3BrPA or the vehicle, washed once with ice-cold PBS followed by two washes with binding buffer, at the end of the treatment period. Cells were then incubated with the FITC-conjugated Annexin V fluorescent antibody for 15 min followed by a gentle wash. The cells were kept in binding buffer and images were observed captured using a Zeiss Axiovert 200 Microscope (Carl Zeiss Microimaging Inc., USA). Active caspase-3, an apoptotic marker, was identified by western blot analysis. Lysates prepared from equal numbers of cells treated with different concentrations of 3BrPA were subjected to SDS-PAGE electrophoresis and immunoblotting against active (cleaved) caspase-3. […]
# [3] = test system: MCF7 cells; assay: Luminescence ATP assay, MCF7; type: cell-based
# Procedure: Cytotoxicity of 3-BrPA was evaluated by the IC50 values, representing the drug concentration which depletes ATP by 50% compared to non-treated control. On day 1, cells were seeded into 96-well plates in a volume of 100 μl per well. On day 2, the medium of all wells was removed and an aliquot of 100 μl of media having serial dilutions of 3-BrPA in PBS, NaHCO3, NaOH, KOH and KHCO3 was added to the appropriate well. After 24 h of drug exposure cytotoxic effects of 3-BrPA were monitored by cellular ATP level using CellTiter-Glo™ assay reagents from Promega Corp (Madison, Wis.). Briefly, 100 μl assay reagent was added to each well and mixed at room temperature for 2 min to develop luminescent signal. The luminescence intensity (cps) from each sample was determined with a spectrometer (Model Victor III, Perkin Elmer, Mass.). Relative luminescence was calculated in proportion to the numbers of living cells per sample well. The results are expressed as the mean of three independent experiments. The intracellular ATP contents were calculated and normalized by equal cell number and expressed as the percentage of the control cells. The IC50 values were estimated graphically from dose-response plots.
# The anti-metabolic effect of 3-BrPA on MCF7 and MDA MB231 cells was examined using luminescence ATP assays, as described above. […]
# [4] = Effect of 3-BrPA concentration on tolerability of oral administration; type: in vivo, nude mice; settings: for Time to death (all mice died): oral
# Procedure: To determine the effect of compound concentration on the tolerable dose of 3-BrPA, a series of experiments were performed in nude mice to determine how a change in administered volume, and therefore a change 3-BrPA concentration, would influence compound efficacy and animal survival. For these experiments, 3-BrPa was administered at a dose of 200 mg/kg and a pH of 4.
# All mice in group 1 and 2 (n=3 per group) died within 24 hours after receiving 5 mg of 3-BrPA in volumes of […], respectively.
# [5] = test system: Hep3B, HepG2, SK-Hep1 and VX2 cells; assay: Annexin V apoptosis assay (flow cytometry and fluorescent microscopy); type: cell-based
# Procedure: The apoptosis of 3-BrPA treated cells was evaluated using Annexin V staining and the formation of active caspase-3. Cells treated with 3-BrPA were stained with anti-Annexin V and analyzed by flow cytometry as well as fluorescent microscopy. Flow cytometry was performed using a Becton-Dickinson FACSCalibur. The gating was done based on unstained control cells, Annexin V—PE stained and 7-AAD stained control cells. For fluorescent microscopy, Annexin V staining was performed using Annexin V staining Microscopy kit (BD Biosciences, USA) according to the protocol recommended by the manufacturer. In brief, cells grown in chambered slides were treated with either 3BrPA or the vehicle, washed once with ice-cold PBS followed by two washes with binding buffer, at the end of the treatment period. Cells were then incubated with the FITC-conjugated Annexin V fluorescent antibody for 15 min followed by a gentle wash. The cells were kept in binding buffer and images were observed captured using a Zeiss Axiovert 200 Microscope (Carl Zeiss Microimaging Inc., USA). Active caspase-3, an apoptotic marker, was identified by western blot analysis. Lysates prepared from equal numbers of cells treated with different concentrations of 3BrPA were subjected to SDS-PAGE electrophoresis and immunoblotting against active (cleaved) caspase-3.
# In order to confirm that the cytotoxic effects of 3BrPA involves cellular apoptotic pathways, Annexin V levels and Caspase-3 activation was examined in cells treated with 3-BrPA. […] Additionally, immunoblotting of cell lysates with activated-Caspase-3 specific antibodies confirmed the activation of caspase-3 during 3BrPA mediated cell death (FIG. 8).
smiles,measurement,setting,value
"O=C(O)C(=O)CBr [3-BrPA, 3-bromopyruvate]",Level of ATP,"[1]; 3, 24, 48 hours",dose and time dependent decrease
same,IC50,"[1]; at 48 hours, read-out: IC50 (ATP depletion)",125 µM
same,Caspase-3 activation (immunoblot),[2],dose dependent increase
same,ATP level (bioluminescent quantification),[3],dose and time dependent energy (ATP) depletion
same,Time to death (all mice died),"[4]; group 1: 5 mg (200 mg/kg, pH 4) in a volume of 50 ml",≤ 24 h
same,Time to death (all mice died),"[4]; group 2: 5 mg (200 mg/kg, pH 4) in a volume of 100 ml",≤ 24 h
same,Tolerability of daily oral administration,"[4]; group 3: 200 mg/kg, pH 4, volume of 150 ml",did not show any signs of discomfort
same,Tolerability of daily oral administration,"[4]; group 4: 200 mg/kg, pH 4, volume of 200 ml",did not show any signs of discomfort
same,Tolerability of daily oral administration,"[4]; group 5: 200 mg/kg, pH 4, volume of 300 ml",did not show any signs of discomfort
same,Annexin V positive cells (flow cytometry),"[5]; Annexin V-PE and 7-AAD staining, 100 and 200 μM",dose dependent increase
same,Number of apoptotic cells compared with control,"[5]; all cell lines, after 2 hours of treatment, 200 μM",significant increase
same,Annexin V staining (photomicrographs),[5]; treated vs control,elevated levels of Annexin V

# Source: patent publication US10130598B2, “Methods and compositions for administration of 3-halopyruvate and related compounds for the treatment of cancer” (The Johns Hopkins University, priority 2008, dated 2018)
